Data from PubChem BioAssay (NCI).
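Step 1: Grow cells in 96-well plates. Step 2: Expose to compound for 48 hours at 5 concentrations. Step 3: Interpolate endpoints linearly; if unreached, use highest concentration. TGI: total growth inhibition.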

What was measured:
Experiment in all cases: NCI-60 cell line screen, 48 h
EKVX NSCLC = tested on: EKVX NSCLC
SW-620 colon = tested on: SW-620 colon
BT-549 breast = tested on: BT-549 breast
MCF7 breast = tested on: MCF7 breast
HL-60(TB) leukemia = tested on: HL-60(TB) leukemia
T-47D breast = tested on: T-47D breast
MDA-MB-231 breast = tested on: MDA-MB-231 breast
SK-MEL-2 melanoma = tested on: SK-MEL-2 melanoma
NCI-H23 lung = tested on: NCI-H23 lung
SNB-19 CNS = tested on: SNB-19 CNS

SMILES	TGI (EKVX NSCLC) [µM]	TGI (SW-620 colon) [µM]	TGI (BT-549 breast) [µM]	TGI (MCF7 breast) [µM]	TGI (HL-60(TB) leukemia) [µM]	TGI (T-47D breast) [µM]	TGI (MDA-MB-231 breast) [µM]	TGI (SK-MEL-2 melanoma) [µM]	TGI (NCI-H23 lung) [µM]	TGI (SNB-19 CNS) [µM]
O=C1CSC(c2cccc([N+](=O)[O-])c2)N1c1ccc(-n2c(-c3ccccc3)nc3ccccc3c2=O)cc1 (stereo not given)	> 100	> 100	> 100	> 100	> 100	> 100	> 100	> 100	> 100	> 100
CC1=C(C(=O)Nc2ccccc2)C2(CCCCC2)C(C#N)=C(SCC(=O)Nc2ccc(Br)cc2)N1	7.81	> 100	33.4	> 47.9	13.7	92.5	27.1	6.6	23.3	> 32.7
CO/N=C(\C)CCC#Cc1ccccc1C(=O)OC	> 10	> 10	> 10	> 10	> 10	> 10	> 10	> 10	> 10	> 10
COC(=O)C1(C)C=CC(=O)C2(C)C1C(O)C1OC3CC(c4ccoc4)C(C)=C3C1(C)C2CC(=O)O (stereo not given)	> 100	> 100	> 100	> 100	> 100	> 100	> 100	> 100	> 100	> 100
CC(C)NC(=O)CN1CCN(c2c(O)c3c(c(O)c2Cl)C(=O)C=CC3=O)CC1	12	1.92	2.85	3.47	0.642	3.67	4.26	3.1	3.02	26.9
Cn1c(-c2cccc([N+](=O)[O-])c2)[n+](C)c2ccccc21	> 100	> 100	> 100	> 100	> 100	> 100	> 100	> 100	> 100	> 100
CCOC(=O)C(SCCO)C(C(=O)OCC)n1ccc(=O)[nH]c1=O (stereo not given)	> 100	46.8	> 100	> 62.1	12	> 100	> 82.2	> 79.8	> 100	> 100
C=CC(Cl)(CBr)CCC(Br)C(C)(C)Cl (stereo not given)	42.4	26.2	38.6	20.1	19.3	39.6	27.6	37.5	31.3	32.8
